Results taken from patent US7196110B2, “N-substituted tricyclic 3-aminopyrazoles as inhibitors for the treatment of cell proliferative disorders” (Janssen Phamaceutica N.V., priority 2002, dated 2007).
“And” between values parts separate entries of the source, which are not always exact repeats. Equal entries are not always repeated.

Assays:
[1] = molecular target: T1, PDGF-receptor beta enzyme comprising the tyrosine kinase domain (Homo sapiens, UniProt P09619); assay: Inhibition of PDGF-receptor kinase activity (cell-free, PLC1 peptide, 33P Flashplate); type: biochemical; settings: PDGF-R kinase activity; for inhibition at 10 µM: compound at 10 uM, read-out: Percent Inhibition @ 10 uM; for IC50: read-out: IC50
T1 construct: from amino acid 545 to 1106 of GenBank Access NO: AAA36427
T1 sequence (P09619 545-1106): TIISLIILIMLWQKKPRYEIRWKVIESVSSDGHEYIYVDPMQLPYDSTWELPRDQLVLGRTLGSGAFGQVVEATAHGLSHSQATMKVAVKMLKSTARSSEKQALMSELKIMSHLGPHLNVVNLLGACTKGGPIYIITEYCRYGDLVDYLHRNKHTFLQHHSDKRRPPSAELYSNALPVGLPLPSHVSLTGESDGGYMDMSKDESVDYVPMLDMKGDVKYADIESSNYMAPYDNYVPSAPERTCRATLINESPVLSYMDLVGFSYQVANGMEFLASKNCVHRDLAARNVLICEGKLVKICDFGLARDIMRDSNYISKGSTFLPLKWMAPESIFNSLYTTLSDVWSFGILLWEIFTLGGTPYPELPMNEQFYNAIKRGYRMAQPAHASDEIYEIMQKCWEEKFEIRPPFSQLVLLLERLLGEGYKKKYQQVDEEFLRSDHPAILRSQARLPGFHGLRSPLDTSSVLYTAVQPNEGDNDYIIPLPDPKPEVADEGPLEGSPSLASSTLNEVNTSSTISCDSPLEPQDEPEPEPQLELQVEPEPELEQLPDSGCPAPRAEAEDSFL
Outline: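 Recombinant kinase domain (aa 545–1106) phosphorylated a biotinylated PLC1 peptide with 5 μM ATP plus 33P-γ-ATP, in Tris pH 8, MgCl2, Na3VO4 and 1 mM DTT, for 60 min at 30 °C. Retained 33P was counted after washing. IC50 is the concentration halving activity versus no-inhibitor reactions.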

[2] = molecular target: c-Abl kinase (Abelson murine leukemia virus, UniProt P00521); assay: Inhibition of c-Abl kinase activity (cell-free, Abl peptide substrate, 33P Flashplate); type: biochemical; settings: IC50 for the c-Abl kinase activity
c-Abl kinase, sequence (P00521 115-385): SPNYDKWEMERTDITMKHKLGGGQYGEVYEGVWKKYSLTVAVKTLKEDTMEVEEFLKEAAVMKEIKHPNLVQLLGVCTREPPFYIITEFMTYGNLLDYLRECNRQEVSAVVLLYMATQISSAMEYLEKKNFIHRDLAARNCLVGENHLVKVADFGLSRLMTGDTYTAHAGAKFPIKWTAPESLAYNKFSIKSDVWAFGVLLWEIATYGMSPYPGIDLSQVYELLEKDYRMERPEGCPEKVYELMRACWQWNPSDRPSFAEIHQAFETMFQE
Method: The inhibitory activity of compounds within the scope of the invention on c-Abl kinase activity was tested according to the following procedure.
• 1. 10× Kinase Buffer [500 mM Tris-HCl pH=8, 100 mM MgCl2, 1 mM Na3VO4] • 2. 10 mM DTT [final concentration 1 mM] • 3. 10 mM ATP [final concentration 5 μM] (Gibco, Cat No:18330-019, Carlsbad, Calif.) • 4. ^33P-γ-ATP [NEG-602H; 2000–3000 Ci/mmol], 2 μCuries per well at 10 μCi/μl (0.2 μl/well) • 5. Abl enzyme (New England Biolabs, Cat No. P6050L, Beverly, Mass.) at 100 Units/μl use 10 Units/well (0.1 μl/well) • 6. Enzyme Dilution Buffer [50 mM Tris-HCl pH=8.0, 0.1% BSA] • 7. Wash/Stop Buffer [PBS+100 mM EDTA] • 8. NEN Streptavidin Flashplates (New England Nuclear, Cat No. SMP-103, Boston, Mass.). • 9. Abl Peptide Substrate (Biotin-[…]-amide) at 1 mM in 50 mM Tris-HCL pH=8.0. (Use at 1.0 μM). Procedure
Reagents were first mixed according to the following regimen:
The above reaction mixture was dispensed into each well of a Flashplate at 70 μl/well. To test the effect of a compound on Abl kinase activity, the test compound either in a fixed concentration or in serially diluted concentrations in 100% DMSO was added to appropriate wells at 1 μl/well.
Enzyme Abl was diluted in enzyme dilution buffer as following:
The kinase reaction was started by adding 30 μl of diluted Abl enzyme solution to each well on the Flashplate containing hot ATP (2 μCi/well) and Abl peptide substrate (at 1 μM final conc.), except wells of column 12 rows E and F, which were used to calculate the plate background. The Flashplate was swirled to mix and was incubated at 30° C. for 60 minutes. Then, the reaction mixture was discarded and the Flashplate was washed 3 times each with 200 μL Wash/Stop Buffer. Subsequently, each well on the Flashplate was filled with 200 μl of Wash/Stop buffer. The amount of ^33P retained in each well was measured using a Packard TopCount after the plate was sealed with a transparent plate sealer.
In order to test the potency of inhibition of present compounds, an IC50 for an individual compound was measured using the above procedure. As used herein, the IC50 for c-Abl kinase activity refers to the concentration of an inhibitor at which the activity of c-Abl kinase is reduced by one-half as compared with reactions containing no inhibitor.

Work on `COc1cc2c(cc1OC)-c1n[nH]c(Nc3ccccc3)c1C2` [Compound 2, (6,7-Dimethoxy-2,4-dihydro-indeno[1,2-c]pyrazol-3-yl)-phenyl-amine] yielded an inhibition at 10 µM [1] of 91%, an IC50 [1] of 6 nM and an IC50 [2] of 11 nM.
`COc1cccc2c1Cc1c-2n[nH]c1Nc1ccccc1` [Compound 8] showed an inhibition at 10 µM [1] of 98%, an IC50 [1] of 54 nM and an IC50 [2] of 694 nM.
`COc1cc2c(cc1OC)-c1n[nH]c(Nc3ccc(F)cc3)c1C2` [Compound 13, (6,7-Dimethoxy-2,4-dihydro-indeno[1,2-c]pyrazol-3-yl)-(4-fluoro-phenyl)-amine] showed an inhibition at 10 µM [1] of 91%, an IC50 [1] of 6.5 nM and an IC50 [2] of 173 nM.
Compound `COc1cccc(Nc2[nH]nc3c2Cc2cc(OC)c(OC)cc2-3)c1` [Compound 29, (6,7-Dimethoxy-2,4-dihydro-indeno[1,2-c]pyrazol-3-yl)-(3-methoxy-phenyl)-amine] has an inhibition at 10 µM [1] of 99% and an IC50 [2] of 5 nM.
`COc1cc2c(cc1OC)-c1n[nH]c(Nc3cccc(C)c3)c1C2` [Compound 32, (6,7-Dimethoxy-2,4-dihydro-indeno[1,2-c]pyrazol-3-yl)-m-tolyl-amine] gave an inhibition at 10 µM [1] of 79% and an IC50 [2] of 2 nM.
With `COc1cc2c(cc1OC)-c1n[nH]c(Nc3cccc(CO)c3)c1C2` [Compound 36, [3-(6,7-Dimethoxy-2,4-dihydro-indeno[1,2-c]pyrazol-3-ylamino)-phenyl]-methanol] the inhibition at 10 µM [1] was 85%, the IC50 [1] was 33 nM and the IC50 [2] was 64 nM.
Work on `COc1cc2c(cc1OC)-c1n[nH]c(Nc3cccc(O)c3)c1C2` [Compound 38, 3-(6,7-Dimethoxy-2,4-dihydro-indeno[1,2-c]pyrazol-3-ylamino)-phenol] yielded an inhibition at 10 µM [1] of 74%, an IC50 [1] of 31 nM and an IC50 [2] of 2 nM.
`COc1cc(Nc2[nH]nc3c2Cc2cc(OC)c(OC)cc2-3)cc(OC)c1` [Compound 41, (6,7-Dimethoxy-2,4-dihydro-indeno[1,2-c]pyrazol-3-yl)-(3,5-dimethoxy-phenyl)-amine] was tested, and the inhibition at 10 µM [1] was 83%, the IC50 [1] was 33.6 nM and the IC50 [2] was 78 nM.
`COc1cc2c(cc1OC)-c1n[nH]c(Nc3cccc(Br)c3)c1C2` [Compound 44, (3-Bromo-phenyl)-(6,7-dimethoxy-2,4-dihydro-indeno[1,2-c]pyrazol-3-yl)-amine] gave an inhibition at 10 µM [1] of 94%, an IC50 [1] of 0.54 nM and an IC50 [2] of 7 nM.
`COc1cc2c(cc1OC)-c1n[nH]c(Nc3cccc(OCc4ccccc4)c3)c1C2` [Compound 54, (3-Benzyloxy-phenyl)-(6,7-dimethoxy-2,4-dihydro-indeno[1,2-c]pyrazol-3-yl)-amine] was tested, and the inhibition at 10 µM [1] was 76%, the IC50 [1] was 34.8 nM and the IC50 [2] was 971 nM.
Compound `CN(C)CCCOc1cccc2c1Cc1c-2n[nH]c1Nc1cccc(F)c1` [Compound 90, [5-(3-Dimethylamino-propoxy)-2,4-dihydro-indeno[1,2-c]pyrazol-3-yl]-(3-fluoro-phenyl)-amine] has an inhibition at 10 µM [1] of 97%, an IC50 [1] of 8.7 nM and an IC50 [2] of 10300 nM.
`COc1cc2c(cc1OC)-c1n[nH]c(Nc3cccc(C(N)=O)c3)c1C2` [Compound 116, 3-(6,7-Dimethoxy-2,4-dihydro-indeno[1,2-c]pyrazol-3-ylamino)-benzamide] gave an inhibition at 10 µM [1] of 96%, an IC50 [1] of 5.3 nM and an IC50 [2] of 386 nM.
`COc1cccc(Nc2[nH]nc3c2Cc2cc(N)ccc2-3)c1` [Compound 118, N3-(3-Methoxy-phenyl)-2,4-dihydro-indeno[1,2-c]pyrazole-3,6-diamine] showed an inhibition at 10 µM [1] of 74%, an IC50 [1] of 21.3 nM and an IC50 [2] of 427 nM.
For `Nc1ccc2c(c1)Cc1c-2n[nH]c1Nc1cccc(Cl)c1` [Compound 119, N3-(3-Chloro-phenyl)-2,4-dihydro-indeno[1,2-c]pyrazole-3,6-diamine], the inhibition at 10 µM [1] was 90%, the IC50 [1] was 19.8 nM and the IC50 [2] was 524 nM.
Compound `CN1CCN(c2ccc3c(c2)Cc2c-3n[nH]c2Nc2cccc(Cl)c2)CC1` [Compound 124, (3-Chloro-phenyl)-[6-(4-methyl-piperazin-1-yl)-2,4-dihydro-indeno[1,2-c]pyrazol-3-yl]-amine] has an inhibition at 10 µM [1] of 94%, an IC50 [1] of 16.3 nM and an IC50 [2] of 1850 nM.
For `Clc1cccc(Nc2[nH]nc3c2Cc2cc4c(cc2-3)OCO4)c1` [Compound 128, (3-Chloro-phenyl)-(2,9-dihydro-5,7-dioxa-2,3-diaza-cyclopenta[a]-s-indacen-1-yl)-amine], the inhibition at 10 µM [1] was 88%, the IC50 [1] was 59.6 nM and the IC50 [2] was 313 nM.
For `COc1cc2c(cc1OCCCN1CCOCC1)Cc1c-2n[nH]c1Nc1cccnc1` [Compound 129, [7-Methoxy-6-(3-morpholin-4-yl-propoxy)-2,4-dihydro-indeno[1,2-c]pyrazol-3-yl]-pyridin-3-yl-amine], the inhibition at 10 µM [1] was 53.5%, the IC50 [1] was 36.7 nM and the IC50 [2] was 10800 nM and 2360 nM.
Compound `COc1cc2c(cc1OCCCN1CCOCC1)Cc1c-2n[nH]c1Nc1cccc(Br)c1` [Compound 130, (3-Bromo-phenyl)-[7-methoxy-6-(3-morpholin-4-yl-propoxy)-2,4-dihydro-indeno[1,2-c]pyrazol-3-yl]-amine] has an inhibition at 10 µM [1] of 94.5%, an IC50 [1] of 2.15 nM and an IC50 [2] of 236 nM.
`COc1cc2c(cc1OCCCN1CCOCC1)Cc1c-2n[nH]c1Nc1cccc(Cl)c1` [Compound 132, (3-Chloro-phenyl)-[7-methoxy-6-(3-morpholin-4-yl-propoxy)-2,4-dihydro-indeno[1,2-c]pyrazol-3-yl]-amine] showed an inhibition at 10 µM [1] of 79%, an IC50 [1] of 5.37 nM and an IC50 [2] of 665 nM.
`COC(=O)c1cccc(Nc2[nH]nc3c2Cc2cc(OCCCN4CCOCC4)c(OC)cc2-3)c1` [Compound 133, 3-[7-Methoxy-6-(3-morpholin-4-yl-propoxy)-2,4-dihydro-indeno[1,2-c]pyrazol-3-ylamino]-benzoic acid methyl ester] was tested, and the inhibition at 10 µM [1] was 53%, the IC50 [1] was 37.9 nM and the IC50 [2] was 498 nM.
`COc1cc2c(cc1OCCCN1CCOCC1)Cc1c-2n[nH]c1Nc1cccc(F)c1` [Compound 134, (3-Fluoro-phenyl)-[7-methoxy-6-(3-morpholin-4-yl-propoxy)-2,4-dihydro-indeno[1,2-c]pyrazol-3-yl]-amine] was tested, and the inhibition at 10 µM [1] was 96%, the IC50 [1] was 10.1 nM and the IC50 [2] was 1160 nM.
`COCCCOc1ccc2c(c1)Cc1c-2n[nH]c1Nc1ccccc1` [Compound 140, [6-(3-Methoxy-propoxy)-2,4-dihydro-indeno[1,2-c]pyrazol-3-yl]-phenyl-amine] showed an inhibition at 10 µM [1] of 56.5%, an IC50 [1] of 13.7 nM and an IC50 [2] of 1410 nM.
Work on `COc1cccc(Nc2[nH]nc3c2Cc2cc(OCCCN4CCCC4)c(OC)cc2-3)c1` [Compound 156, (3-Methoxy-phenyl)-[7-methoxy-6-(3-pyrrolidin-1-yl-propoxy)-2,4-dihydro-indeno[1,2-c]pyrazol-3-yl]-amine] yielded an inhibition at 10 µM [1] of 87.5%, an IC50 [1] of 1 nM and an IC50 [2] of 89 nM.
`CN(C)CCCOc1ccc2c(c1)Cc1c-2n[nH]c1Nc1cccc(F)c1` [Compound 160, [6-(3-Dimethylamino-propoxy)-2,4-dihydro-indeno[1,2-c]pyrazol-3-yl]-(3-fluoro-phenyl)-amine] gave an inhibition at 10 µM [1] of 94.5%, an IC50 [1] of 58.5 nM and an IC50 [2] of 1020 nM.
With `COc1ccc2c(c1)-c1n[nH]c(Nc3ccc(F)cc3)c1C2` [Compound 170, (4-Fluoro-phenyl)-(7-methoxy-2,4-dihydro-indeno[1,2-c]pyrazol-3-yl)-amine] the inhibition at 10 µM [1] was 95.5%, the IC50 [1] was 26.8 nM and the IC50 [2] was 75 nM.
Compound `COc1ccc2c(c1)-c1n[nH]c(Nc3cccc(F)c3)c1C2` [Compound 172, (3-Fluoro-phenyl)-(7-methoxy-2,4-dihydro-indeno[1,2-c]pyrazol-3-yl)-amine] has an inhibition at 10 µM [1] of 55%, an IC50 [1] of 13.3 nM and an IC50 [2] of 84 nM.
Compound `COc1cc2c(cc1OCCCN1CCOCC1)Cc1c-2n[nH]c1Nc1ccc(F)c(Cl)c1` [Compound 179, (3-Chloro-4-fluoro-phenyl)-[7-methoxy-6-(3-morpholin-4-yl-propoxy)-2,4-dihydro-indeno[1,2-c]pyrazol-3-yl]-amine] has an inhibition at 10 µM [1] of 92%, an IC50 [1] of 71.2 nM and an IC50 [2] of 870 nM.
